{"source": "patent US20230181662A1", "about": "“USES OF ANTRODIA CINNAMOMEA EXTRACT IN MANUFACTURING PRODUCTS FOR REDUCING EXPRESSION AND TREATING ASSOCIATED DISEASES OF ANGIOTENSIN CONVERTING ENZYME 2” (priority 2020, published 2023)", "note": "Entries after “also recorded” stand apart in the source; their conditions may differ.", "data": [{"target": "ACE-2 (Homo sapiens, UniProt Q9BYF1)", "sequence (Q9BYF1 18-805, species assumed)": "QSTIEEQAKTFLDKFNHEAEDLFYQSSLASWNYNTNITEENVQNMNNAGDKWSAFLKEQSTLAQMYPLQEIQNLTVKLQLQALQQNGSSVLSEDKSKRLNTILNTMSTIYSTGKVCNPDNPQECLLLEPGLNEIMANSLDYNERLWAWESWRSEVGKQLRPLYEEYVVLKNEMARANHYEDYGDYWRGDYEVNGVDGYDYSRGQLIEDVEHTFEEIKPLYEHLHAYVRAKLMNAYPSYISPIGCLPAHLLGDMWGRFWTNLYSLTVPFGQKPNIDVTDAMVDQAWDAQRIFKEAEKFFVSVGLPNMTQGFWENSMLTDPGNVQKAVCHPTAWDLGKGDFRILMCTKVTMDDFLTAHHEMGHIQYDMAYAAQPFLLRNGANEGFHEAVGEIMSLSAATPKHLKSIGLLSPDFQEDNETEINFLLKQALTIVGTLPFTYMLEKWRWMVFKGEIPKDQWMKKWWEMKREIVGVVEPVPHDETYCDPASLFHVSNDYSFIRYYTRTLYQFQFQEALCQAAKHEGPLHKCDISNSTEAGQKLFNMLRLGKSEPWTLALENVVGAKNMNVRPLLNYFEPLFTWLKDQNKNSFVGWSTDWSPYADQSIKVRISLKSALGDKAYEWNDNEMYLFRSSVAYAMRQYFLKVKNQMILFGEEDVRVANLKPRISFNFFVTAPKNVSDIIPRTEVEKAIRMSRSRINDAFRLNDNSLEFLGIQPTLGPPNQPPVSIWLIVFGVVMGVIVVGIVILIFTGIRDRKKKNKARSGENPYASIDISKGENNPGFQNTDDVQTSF", "test": "ACE-2 enzyme activity assay (MCA based peptide substrate, fluorescence)", "type": "biochemical", "conditions": "20 μg/mL each compound", "values": [{"molecule": "C=C(CC[C@@H](C(=O)O)[C@H]1C[C@H](O)[C@@]2(C)C3=CC[C@H]4C(C)(C)[C@@H](O)CC[C@]4(C)C3=CC[C@]12C)C(C)C", "note": "[DSA, dehydrosulphurenic acid]", "inhibition of ACE-2 enzyme activity": "more than 30%"}]}, {"target": "ACE-2 (Homo sapiens, UniProt Q9BYF1)", "test": "ACE-2 enzyme activity assay (MCA based peptide substrate, fluorescence)", "type": "biochemical", "conditions": "20 μg/mL each ingredient", "values": [{"molecule": "Antcin K", "inhibition ability on ACE-2 enzymatic activity": "stronger inhibition activity; also recorded: have ability of inhibition on ACE-2"}, {"molecule": "C=C(CC[C@@H](C(=O)O)[C@H]1C[C@H](O)[C@@]2(C)C3=CC[C@H]4C(C)(C)[C@@H](O)CC[C@]4(C)C3=CC[C@]12C)C(C)C", "note": "[DSA, dehydrosulphurenic acid]", "inhibition ability on ACE-2 enzymatic activity": "stronger inhibition activity; also recorded: have ability of inhibition on ACE-2"}, {"molecule": "C=C(CC[C@@H](C)[C@H]1CC[C@H]2C3=C(C(=O)C[C@]12C)[C@@]1(C)CCC(=O)[C@@H](C)[C@@H]1CC3)C(C)C(=O)O", "note": "(stereo partly shown) [Antcin A]", "inhibition ability on ACE-2 enzymatic activity": "stronger inhibition activity"}, {"molecule": "C=C(CCC(C)C1CCC2C3=C(C(=O)C(O)C21C)C1(C)CCC(O)C(C)C1CC3=O)C(C)C(=O)O", "note": "(stereo not shown) [Antcin H]", "inhibition ability on ACE-2 enzymatic activity": "had inhibition ability"}, {"molecule": "Antcin C", "inhibition ability on ACE-2 enzymatic activity": "had inhibition ability"}, {"molecule": "C=C(CC[C@@H](C(=O)O)[C@H]1CC[C@@]2(C)C3=CC[C@H]4C(C)(C)[C@@H](O)CC[C@]4(C)C3=CC[C@]12C)C(C)C", "note": "[DEA, dehydroeburicoic acid]", "inhibition ability on ACE-2 enzymatic activity": "had inhibition ability; also recorded: have ability of inhibition on ACE-2"}]}]}
